Legend:
human σ1 receptor = biological target: T1, human σ1 receptor (Homo sapiens, UniProt Q99720); assay: Human σ1 receptor radioligand assay ([3H](+)-pentazocine); type: binding; conditions: transfected HEK-293 membranes, 5 nM [3H](+)-pentazocine, 37° C., 120 minutes; read-out: Binding σ-[…] (binding to σ1-receptor expressed as Ki)
T1 construct: expressed in transfected cells; host or cells: HEK-293
Summary of the method: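 Binding used [3H](+)-pentazocine, 120 min at 37° C, with non-specific binding defined by 10 μM haloperidol. Bound radioligand was collected by filtration, washed with ice-cold 10 mM Tris-HCl pH 7.4 and counted by scintillation.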

human σ2/TMEM97 receptor = biological target: T2, human σ2/TMEM97 receptor (Homo sapiens, UniProt Q5BJF2); assay: Binding assay to human σ2/TMEM97 receptor ([3H]-DTG); conditions: transfected HEK-293 membranes, 10 nM [3H]-DTG, 25° C., 120 minutes; read-out: Binding σ-[…] (binding to σ2-receptor expressed as Ki)
T2 construct: expressed in transfected cells; host or cells: HEK-293
T2 sequence (Q5BJF2 whole entry): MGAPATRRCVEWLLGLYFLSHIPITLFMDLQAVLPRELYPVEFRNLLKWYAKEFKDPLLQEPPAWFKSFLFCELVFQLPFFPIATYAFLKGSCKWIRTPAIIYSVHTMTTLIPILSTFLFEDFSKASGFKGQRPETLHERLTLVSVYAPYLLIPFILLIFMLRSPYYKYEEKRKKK
Summary of the method: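 Membranes from transfected HEK-293 cells incubated with 10 nM [3H]-DTG in 50 mM Tris-HCl pH 8.0, 120 min at 25 °C; non-specific binding defined with 10 μM haloperidol. Bound radioactivity counted after filtration; compounds tested as % inhibition at 1 or 10 μM or at five concentrations for Ki.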

T1 sequence (Q99720 whole entry): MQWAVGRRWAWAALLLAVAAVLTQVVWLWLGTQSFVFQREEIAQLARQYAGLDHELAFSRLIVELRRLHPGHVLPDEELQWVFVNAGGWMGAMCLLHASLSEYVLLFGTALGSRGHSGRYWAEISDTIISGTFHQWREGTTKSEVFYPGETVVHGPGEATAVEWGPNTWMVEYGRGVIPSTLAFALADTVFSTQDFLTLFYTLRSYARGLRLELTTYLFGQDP

Compound	Ki (human σ1 receptor) [nM]	Ki (human σ2/TMEM97 receptor) [nM]
Cc1ccc2c(n1)C(C)(C)CN2C(=O)N1CCC(N(C)Cc2cccnc2)CC1 [Example 74, (4-(methyl(pyridin-3-ylmethyl)amino)piperidin-1-yl)(3,3,5-trimethyl-2,3-dihydro-1H-pyrrolo[3,2-b]pyridin-1-yl)methanone]	> 1000	500 to 1000
Cc1ccc2c(n1)C(C)(C)CN2C(=O)N1CCC2(CCN(Cc3ccccc3)C2)C1 (stereo not shown) [Example 37, (7-benzyl-2,7-diazaspiro[4.4]nonan-2-yl)(3,3,5-trimethyl-2,3-dihydro-1H-pyrrolo[3,2-b]pyridin-1-yl)methanone]	100 to 500	< 100
Cc1ccc2c(n1)C(C)(C)CN2C(=O)NC1CCN(Cc2cccc(Cl)c2)CC1 [Example 55, N-(1-(3-chlorobenzyl)piperidin-4-yl)-3,3,5-trimethyl-2,3-dihydro-1H-pyrrolo[3,2-b]pyridine-1-carboxamide]	< 100	100 to 500
CC1(C)CN(C(=O)NC2CCN(Cc3cccc(F)c3)CC2)c2cccnc21 [Example 47, N-(1-(3-fluorobenzyl)piperidin-4-yl)-3,3-dimethyl-2,3-dihydro-1H-pyrrolo[3,2-b]pyridine-1-carboxamide]	< 100	> 1000
Cc1ccc2c(n1)C(C)(C)CN2C(=O)NC1CCN(Cc2ccc(F)cc2)CC1 [Example 22, N-(1-(4-fluorobenzyl)piperidin-4-yl)-3,3,5-trimethyl-2,3-dihydro-1H-pyrrolo[3,2-b]pyridine-1-carboxamide]	< 100	500 to 1000
CN(C)[C@@H](CNC(=O)N1CC(C)(C)c2ncc(F)cc21)c1ccccc1 [Example 20, (R)—N-(2-(dimethylamino)-2-phenylethyl)-6-fluoro-3,3-dimethyl-2,3-dihydro-1H-pyrrolo[3,2-b]pyridine-1-carboxamide]	< 100	> 1000
Cc1ccc2c(n1)C(C)(C)CN2C(=O)N1CCC(N(C)CCc2ccccc2)CC1 [Example 50, (4-(methyl(phenethyl)amino)piperidin-1-yl)(3,3,5-trimethyl-2,3-dihydro-1H-pyrrolo[3,2-b]pyridin-1-yl)methanone]	100 to 500	< 100
CN(Cc1ccc(F)c(F)c1)C1CCN(C(=O)N2CC(C)(C)c3ncccc32)CC1 [Example 79, (4-((3,4-Difluorobenzyl)(methyl)amino)piperidin-1-yl)(3,3-dimethyl-2,3-dihydro-1H-pyrrolo[3,2-b]pyridin-1-yl)methanone]	100 to 500	< 100
Cc1ccc2c(n1)C(C)(C)CN2C(=O)N1CCC(N(C)CC2CCOCC2)CC1 [Example 65, (4-(methyl((tetrahydro-2H-pyran-4-yl)methyl)amino)piperidin-1-yl)(3,3,5-trimethyl-2,3-dihydro-1H-pyrrolo[3,2-t]pyridin-1-yl)methanone]	100 to 500	< 100
Cc1ccc2c(n1)C(C)(C)CN2C(=O)N(C)C[C@@H](c1ccccc1)N(C)C [Example 8, (R)—N-(2-(dimethylamino)-2-phenylethyl)-N,3,3,5-tetramethyl-2,3-dihydro-1H-pyrrolo[3,2-b]pyridine-1-carboxamide]	500 to 1000	> 1000
Cc1ccc2c(n1)C(C)(C)CN2C(=O)NC[C@@H](c1ccc(F)cc1)N(C)C [Example 33, (R)—N-(2-(dimethylamino)-2-(4-fluorophenyl)ethyl)-3,3,5-trimethyl-2,3-dihydro-1H-pyrrolo[3,2-b]pyridine-1-carboxamide]	< 100	> 1000
Cc1ccc2c(n1)C(C)(C)CN2C(=O)N1CCC(N(C)Cc2ccccc2)CC1 [Example 11, (4-(benzyl(methyl)amino)piperidin-1-yl)(3,3,5-trimethyl-2,3-dihydro-1H-pyrrolo[3,2-b]pyridin-1-yl)methanone]	100 to 500	< 100
Cc1ccc2c(n1)C(C)(C)CN2C(=O)NC1CCN(CC(C)C)CC1 [Example 41, N-(1-isobutylpiperidin-4-yl)-3,3,5-trimethyl-2,3-dihydro-1H-pyrrolo[3,2-b]pyridine-1-carboxamide]	100 to 500	> 1000

Results, then the compound that gave them:

Ki (human σ1 receptor) [nM]	Ki (human σ2/TMEM97 receptor) [nM]	Compound
> 1000	< 100	Cc1ccc2c(n1)C(C)(C)CN2C(=O)N1CCC2(CCN(Cc3ccc(F)c(C#N)c3)CC2)C1 [Example 107, 2-fluoro-5-((2-(3,3,5-trimethyl-2,3-dihydro-1H-pyrrolo[3,2-b]pyridine-1-carbonyl)-2,8-diazaspiro[4.5]decan-8-yl)methyl)benzonitrile]
< 100	< 100	Cc1ccc2c(n1)C(C)(C)CN2C(=O)[C@H]1CC[C@H](N(C)Cc2ccc(F)c(F)c2)CC1 [Example 170, ((1r,4r)-4-((3,4-difluorobenzyl)(methyl)amino)cyclohexyl)(3,3,5-trimethyl-2,3-dihydro-1H-pyrrolo[3,2-b]pyridin-1-yl)methanone]
> 1000	< 100	CC1(C)CN(C(=O)N2CCC3(CCN(Cc4ccc(C(F)(F)F)nc4)CC3)C2)c2cccnc21 [Example 155, (3,3-dimethyl-2,3-dihydro-1H-pyrrolo[3,2-b]pyridin-1-yl)(8-((6-(trifluoromethyl)pyridin-3-yl)methyl)-2,8-diazaspiro[4.5]decan-2-yl)methanone]
< 100	< 100	Cc1ccc2c(n1)C(C)(C)CN2C(=O)[C@H]1CC[C@H](N(C)Cc2cc(F)ccc2F)CC1 [Example 173, ((1r,4r)-4-((2,5-difluorobenzyl)(methyl)amino)cyclohexyl)(3,3,5-trimethyl-2,3-dihydro-1H-pyrrolo[3,2-b]pyridin-1-yl)methanone]
100 to 500	< 100	Cc1ccc2c(n1)C(C)(C)CN2C(=O)N1CCC2(CCN(Cc3ccccc3)CC2)C1 [Example 80, (8-benzyl-2,8-diazaspiro[4.5]decan-2-yl)(3,3,5-trimethyl-2,3-dihydro-1H-pyrrolo[3,2-b]pyridin-1-yl)methanone]
< 100	500 to 1000	Cc1ccc2c(n1)C(C)(C)CN2C(=O)C1CCN(Cc2ccccc2)CC1 [Example 123, (1-benzylpiperidin-4-yl)(3,3,5-trimethyl-2,3-dihydro-1H-pyrrolo[3,2-b]pyridin-1-yl)methanone]
100 to 500	100 to 500	Cc1ccc2c(n1)C(C)(C)CN2C(=O)N1CCC2(CCN(C(C)c3ccccc3)CC2)C1 (stereo not shown) [Example 96, (8-(1-phenylethyl)-2,8-diazaspiro[4.5]decan-2-yl)(3,3,5-trimethyl-2,3-dihydro-1H-pyrrolo[3,2-b]pyridin-1-yl)methanone]
< 100	< 100	CC1(C)CN(C(=O)N2CCC3(CCN(Cc4cc(F)ccc4F)CC3)C2)c2cccnc21 [Example 148, (8-(2,5-difluorobenzyl)-2,8-diazaspiro[4.5]decan-2-yl)(3,3-dimethyl-2,3-dihydro-1H-pyrrolo[3,2-b]pyridin-1-yl)methanone]
100 to 500	> 1000	CC1(C)CN(C(=O)NC2CN(Cc3ccccc3)C2)c2cccnc21 [Example 88, N-(1-benzylazetidin-3-yl)-3,3-dimethyl-2,3-dihydro-1H-pyrrolo[3,2-b]pyridine-1-carboxamide]
< 100	100 to 500	CC1(C)CN(C(=O)C2CN(Cc3ccccc3)C2)c2cccnc21 [Example 132, (1-benzylazetidin-3-yl)(3,3-dimethyl-2,3-dihydro-1H-pyrrolo[3,2-b]pyridin-1-yl)methanone]
